# Results: patent US5157052A, “Method for inhibiting IgE production” (priority 1990, dated 1992)
# Key:
# [1] = tested on: IgE; assay: Serum IgE response induced by FF1-4D5 + H∂A1 anti-IgD antibodies (ELISA, Assay A / Assay F); format: in vivo, mouse (Balb/c female); settings: for IgE ± SD: Table 9, 20 μg IP days 3 and 4
# In short: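 Transient IgE response induced in female Balb/c mice (10–20 weeks) by a day-0 i.v. or s.c. injection of 100 μg each of anti-IgD FF1-4D5 and H.δA1. Serum IgE measured by sandwich ELISA (B1E3 capture, biotinylated R1E4 detection, avidin-biotin-HRP/ABTS), quantified against an IgE standard curve corrected for serum dilution.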
# [2] = tested on: IgE; assay: ED50 for inhibition of IgE calculated from the examples; format: in vivo, mouse; settings: dose to achieve 50% inhibition of IgE
# Experimental: From the data in the above examples, the effective dose of each prostaglandin to achieve 50% inhibition of IgE (ED50) was calculated.
# [3] = Diarrheal effects in rats; settings: rat, in vivo, po
# Experimental: Briefly, adult Charles River male rats weighing 210-230 g were individually housed and fasted with water available ad libitum for 24 hours prior to the test. The animals (N=6-12) received logarithmically graded prostaglandin doses orally. Immediately after administration, the animals were returned to their cages, and diarrhea, if any, was assessed on an all or none basis for 8 hours after drug treatment. The ED50 and relative potency values were calculated by the logistic method of Berkson.
compound,measurement,setting,value
"CCCCC(C)(O)C/C=C/[C@H]1[C@H](O)CC(=O)[C@@H]1C/C=C\CCCC(=O)OC (mixture of isomers) [(±) methyl 11α,16-dihydroxy-16-methyl-9-oxoprosta-5Z,13E-dien-1-oate]",optimal day of administration for inhibition of IgE,[1]; 5 μg IP,IgE production is inhibited optimally when administered on day 3 and 4
same,Mean IgE ± SD,"[1]; 5 μg IP 4x daily days 3 and 4, day 8 (controls 14083-15890)",5076 ± 378 ng/mL
same,Mean IgE ± SD,"[1]; 5 μg IP 4x daily days 3 and 4, day -1 baseline before treatment",1292 ± 185 ng/mL
same,Serum IgE ± SD,"[1]; 5 μg IP on days 1,2, day 8 (control 19549)",9753 ± 4566 ng/mL
same,Serum IgE ± SD,"[1]; 5 μg IP on days 1,2, day 9 (control 17498)",10678 ± 8402 ng/mL
same,Serum IgE ± SD,"[1]; 5 μg IP on days 1,2, day 11 (control 5317)",2355 ± 709 ng/mL
same,Serum IgE ± SD,"[1]; 5 μg IP on days 1,2, day -1 baseline before treatment",1344 ± 135 ng/mL
same,Serum IgE ± SD,"[1]; 5 μg IP on days 2,3, day 8 (control 19549)",6233 ± 1948 ng/mL
same,Serum IgE ± SD,"[1]; 5 μg IP on days 2,3, day 9 (control 17498)",5328 ± 1811 ng/mL
same,Serum IgE ± SD,"[1]; 5 μg IP on days 2,3, day 11 (control 5317)",2139 ± 396 ng/mL
same,Serum IgE ± SD,"[1]; 5 μg IP on days 2,3, day -1 baseline before treatment",1293 ± 88 ng/mL
same,Serum IgE ± SD,"[1]; 5 μg IP on days 3,4, day 8 (control 19549)",4683 ± 1247 ng/mL
same,Serum IgE ± SD,"[1]; 5 μg IP on days 3,4, day 9 (control 17498)",4505 ± 1155 ng/mL
same,Serum IgE ± SD,"[1]; 5 μg IP on days 3,4, day 11 (control 5317)",1865 ± 361 ng/mL
same,Serum IgE ± SD,"[1]; 5 μg IP on days 3,4, day -1 baseline before treatment",1517 ± 166 ng/mL
same,Serum IgE ± SD,"[1]; 5 μg IP on days 4,5, day 8 (control 19549)",7969 ± 1821 ng/mL
same,Serum IgE ± SD,"[1]; 5 μg IP on days 4,5, day 9 (control 17498)",7145 ± 1763 ng/mL
same,Serum IgE ± SD,"[1]; 5 μg IP on days 4,5, day 11 (control 5317)",2316 ± 496 ng/mL
same,Serum IgE ± SD,"[1]; 5 μg IP on days 4,5, day -1 baseline before treatment",1644 ± 560 ng/mL
same,Serum IgE ± SD,"[1]; 10.0 μg IP 3x daily days 3 and 4, day 7",3223 ± 1717 ng/mL
same,Serum IgE ± SD,"[1]; 10.0 μg IP 3x daily days 3 and 4, day 8",1705 ± 859 ng/mL
same,Serum IgE ± SD,"[1]; 10.0 μg IP 3x daily days 3 and 4, day 9",1233 ± 601 ng/mL
same,Serum IgE ± SD,"[1]; 10.0 μg IP 3x daily days 3 and 4, day 11",1116 ± 276 ng/mL
same,Serum IgE ± SD,"[1]; 10.0 μg IP 3x daily days 3 and 4, day -1 baseline before treatment",849 ± 77 ng/mL
same,Serum IgE ± SD,"[1]; 10.0 μg IP 4x daily days 3 and 4, day 7",2092 ± 605 ng/mL
same,Serum IgE ± SD,"[1]; 10.0 μg IP 4x daily days 3 and 4, day 8",1884 ± 598 ng/mL
same,Mean IgE ± SD,"[1]; 10 μg IP 4x daily days 3 and 4, day 8 (controls 14083-15890)",2661 ± 504 ng/mL
same,Serum IgE ± SD,"[1]; 10.0 μg IP 4x daily days 3 and 4, day 9",1991 ± 834 ng/mL
same,Serum IgE ± SD,"[1]; 10.0 μg IP 4x daily days 3 and 4, day 11",1429 ± 361 ng/mL
same,Mean IgE ± SD,"[1]; 10 μg IP 4x daily days 3 and 4, day -1 baseline before treatment",1382 ± 135 ng/mL
same,Serum IgE ± SD,"[1]; 10.0 μg IP 4x daily days 3 and 4, day -1 baseline before treatment",1040 ± 211 ng/mL
same,Mean IgE ± SD,"[1]; 20 μg IP 4x daily days 3 and 4, day 8 (controls 14083-15890)",1608 ± 272 ng/mL
same,Mean IgE ± SD,"[1]; 20 μg IP 4x daily days 3 and 4, day -1 baseline before treatment",1308 ± 204 ng/mL
same,inhibition of de novo IgE synthesis in vivo,[1]; 20 μg days 3 and 4,de nouo IgE synthesis is inhibited
same,Serum IgE ± SD,"[1]; 40 μg IP 3x daily days 3 and 4, day 7",998 ± 146 ng/mL
same,Serum IgE ± SD,"[1]; 40 μg IP 3x daily days 3 and 4, day 8",1214 ± 181 ng/mL
same,Serum IgE ± SD,"[1]; 40 μg IP 3x daily days 3 and 4, day 9",1119 ± 135 ng/mL
same,Serum IgE ± SD,"[1]; 40 μg IP 3x daily days 3 and 4, day 11",1110 ± 249 ng/mL
same,Serum IgE ± SD,"[1]; 40 μg IP 3x daily days 3 and 4, day -1 baseline before treatment",822 ± 39 ng/mL
same,Serum IgE ± SD,"[1]; 40.0 μg IP 4x daily days 3 and 4, day 7",1037 ± 237 ng/mL
same,Serum IgE ± SD,"[1]; 40.0 μg IP 4x daily days 3 and 4, day 8",1152 ± 388 ng/mL
same,Mean IgE ± SD,"[1]; 40 μg IP 4x daily days 3 and 4, day 8 (controls 14083-15890)",1217 ± 344 ng/mL
same,Serum IgE ± SD,"[1]; 40.0 μg IP 4x daily days 3 and 4, day 9",870 ± 83 ng/mL
same,Serum IgE ± SD,"[1]; 40.0 μg IP 4x daily days 3 and 4, day 11",1028 ± 302 ng/mL
same,Mean IgE ± SD,"[1]; 40 μg IP 4x daily days 3 and 4, day -1 baseline before treatment",1114 ± 324 ng/mL
same,Serum IgE ± SD,"[1]; 40.0 μg IP 4x daily days 3 and 4, day -1 baseline before treatment",929 ± 97 ng/mL
same,inhibition of serum IgE synthesis,[1]; 2-40 μg IP days 3 and 4,reduces IgE production in a dose dependent manner
same,Mean IgE ± SD,"[1]; Group D, unstimulated (PBS on day 0), 40 μg (text: 20 μg) IP days 3 and 4, day 8",1026 ± 387 ng/mL
same,Mean IgE ± SD,"[1]; Group D, unstimulated (PBS on day 0), 40 μg (text: 20 μg) IP days 3 and 4, day -1 baseline before treatment",1289 ± 10 ng/mL
same,"IgE inhibition, 3 vs 4 times a day",[1]; IP days 3 and 4,equally effective at inhibiting IgE production in a dose dependent manner whether administered 3 times a day or 4 times a day
same,dosage at which maximum inhibition is obtained,[1]; IP days 3 and 4,40.0 µg
same,lowest dosage at which some inhibition is obtained,[1]; IP days 3 and 4,1.0 µg
same,IgE ± SD,[1]; day 8 (control 3539),1206 ± 119 ng/mL
same,IgE ± SD,[1]; day -1 baseline before treatment,1015 ± 70 ng/mL
same,ED50 IgE Inhibition,[2],1.0 μg/mouse/TID
same,TD50 at 8 h,[3],0.173 mg/kg
